Laboratory results taken from PubChem BioAssay (NCI).
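Following 48 hours of exposure in 96-well plates, responses at five concentrations were used to interpolate endpoints linearly. GI50: concentration for 50% inhibition of growth. TGI: total growth inhibition.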

Legend:
Assay in all cases: NCI-60 cell line screen, 48 h
[1] = system: A498 renal
[2] = system: BT-549 breast
[3] = system: NCI-H522 lung
[4] = system: OVCAR-8 ovarian
[5] = system: SF-295 CNS
[6] = system: SK-OV-3 ovarian
[7] = system: SNB-19 CNS
[8] = system: T-47D breast
[9] = system: HCT-116 colon
[10] = system: K-562 leukemia

SMILES	GI50 [1] [µM]	TGI [1] [µM]	GI50 [2] [µM]	TGI [2] [µM]	GI50 [3] [µM]	TGI [3] [µM]	GI50 [4] [µM]	TGI [4] [µM]	GI50 [5] [µM]	TGI [5] [µM]	GI50 [6] [µM]	TGI [6] [µM]	GI50 [7] [µM]	TGI [7] [µM]	GI50 [8] [µM]	TGI [8] [µM]	TGI [9] [µM]	TGI [10] [µM]	GI50 [9] [µM]	GI50 [10] [µM]
Cc1cc(NCCCCNc2ccnc3cc(Cl)ccc23)nc(Nc2ccc(C(=O)N3CCCCC3)cc2)n1	1.61	3.72	1.69	3.21	1.86	4.22	2.34	5.49	1.67	3.25	2.78	6.13	3.25	13.3	2.52	5.94	–	–	–	–
NC(CCc1ncc(C(=O)O)s1)C(=O)O (stereo not drawn)	–	> 100	–	–	–	> 100	–	> 100	–	> 100	–	> 100	–	–	–	–	> 100	> 100	–	–
CCOC(=O)C1=C(Nc2ccc(Br)cc2)OCC1=O	–	> 100	–	–	–	> 100	–	> 100	–	> 100	–	> 100	–	> 100	–	–	> 100	–	–	–
COc1ccc2nc3cc(Cl)ccc3c(Sc3ccc(NC(C)=O)cc3)c2c1	–	> 60.9	–	–	–	7.85	–	> 21.1	–	> 51.2	–	> 61.9	–	> 26.4	–	–	> 45.3	> 100	–	–
Cc1c(Cl)cccc1NC(=O)c1cccc([N+](=O)[O-])c1O	–	45.9	–	–	–	31.6	–	> 100	–	65	–	> 80.2	–	> 100	–	–	40	> 82.7	–	–
NC(=O)CNc1ccc([As]=[As]c2ccc(NCC(N)=O)cc2)cc1 (stereo not drawn)	4.69	18	–	–	–	–	4.65	> 100	8.91	36.9	22.6	71.4	4.7	18.2	1.44	17.4	16.3	> 100	3.64	3.47
CC12CCC(=O)N1c1cccnc1N2 (stereo not drawn)	–	> 100	–	–	–	> 100	–	> 100	–	> 100	–	> 100	–	–	–	–	–	> 100	–	–
COC(=O)c1c[nH]cc1CCCCc1c[nH]cc1C(=O)OC	–	> 100	–	–	–	> 100	–	> 100	–	> 100	–	> 100	–	> 100	–	–	> 100	> 100	–	–
Cc1sc2c(c1C)C(c1ccc(Cl)cc1)=N[C@@H](CC(=O)Nc1ccc(OCCOCCOCCOCCNc3cccc4c3C(=O)N(C3CCC(=O)NC3=O)C4=O)cc1)c1nnc(C)n1-2 (stereo partly drawn)	0.013	0.0962	< 0.0228	> 100	0.518	> 100	< 0.0193	> 100	0.234	> 100	0.306	> 31.6	< 0.0301	> 100	–	–	> 100	> 100	–	0.293
COc1cc(/C=N\O[Si](C)(C)C(C)(C)C)ccc1O[Si](C)(C)C(C)(C)C	–	–	–	–	–	–	–	> 100	–	> 100	–	> 100	–	> 100	–	–	> 100	> 100	–	–
COC(=O)C(=O)CC(=O)c1cccc(OC)c1	–	> 100	–	> 100	–	–	–	> 100	–	> 100	–	> 100	–	> 100	–	> 100	> 100	> 100	–	–
